Tested on: ribosome
Assay: Toeprinting analysis of ribosome arrest during in vitro translation
Assay type: biochemical
Conditions: model yrbA-fs15 ORF with UAG stop codon; 50 μM

C=C[C@]1(C)C[C@@H](OC(=O)CS[C@@H]2C[C@H]3CC[C@@H](C2)N3C)[C@]2(C)[C@H](C)CC[C@]3(CCC(=O)[C@H]32)[C@@H](C)[C@@H]1O [retapamulin]
ribosome arrest site (toeprint): ribosomes arrested at the start codon
